Data as given in patent publication US7015202B2, “Use of glycyrrhizin and its derivatives as MCP-1 production inhibitors” (Minophagen Pharmaceutical Co., Ltd., priority 2002, dated 2006).

How the values were obtained:
MCP-1 [1] = assay: MCP-1 production by IL-10-stimulated peripheral blood mononuclear cells (ELISA); format: cell-based, human; settings: PBMC from healthy individuals, 20 ng/ml IL-10, compound 100 μg/ml, 24 hours, FIG. 1
Method: Peripheral blood was collected from health individuals and the fraction containing peripheral blood mononuclear cells (PBMC) was isolated with Ficoll-Hypaque. Monocytes were inoculated into each well of a 96-well flat-bottom microtiter plate at a concentration of 1×10^6 cells/ml. RPMI1640 medium containing 10% FCS and antibiotics (penicillin and streptomycin) was used for culturing. The cells were cultured using an incubator maintained at a temperature of 37° C. and CO2 concentration of 5%. The cells were stimulated by addition of 20 ng/ml of IL-10 (acquired from PeproTech) to each well, and a solution of glycyrrhizin or its derivatives was added at a concentration of 100 μg/ml to all wells except the control well, after which culturing was continued for 24 hours. Following addition of glycyrrhizin, the culture supernatant was recovered and the amount of MCP-1 in the supernatant was quantified by ELISA. A commercially available kit (trade name: Human MCP-1 BD OptEIA ELISA Kit) was used for ELISA.

MCP-1 [2] = assay: MCP-1 production by peripheral blood mononuclear cells from burn patients (ELISA); format: cell-based, human; settings: 100 μg/ml, 24 hours, FIG. 2
Method: Experimental Method Peripheral blood was collected from burn patients (third-degree burns covering 45–78% of the body surface), and peripheral blood mononuclear cells were isolated with Ficoll-Hypaque. 1×10^6 cells/ml of the peripheral blood mononuclear cells were stimulated for 24 hours with 100 μg/ml of glycyrrhizin. Furthermore, mononuclear cells from healthy subjects were cultured under the same conditions for the control. The amount of MCP-1 in the culture supernatant was measured with the Human MCP-1 BD OptEIA ELISA Kit.

HSV-1 = assay: Sensitivity to HSV-1 infection in burn mice; format: in vivo
Method: Experimental Method One day after subjecting normal mice and MCP-1 knockout mice to third degree burns over 15% of their body surface area, the animals were intraperitoneally infected with HSV-1 in an amount of 1×10^1 to 1×10^6 pfu/kg body weight. For the control, normal mice were infected with HSV-1 under the same conditions. In addition, MCP-1 (50 ng/mouse) was administered subcutaneously to normal mice 2 hours before infection and 12 and 24 hours after infection. Anti-MCP-1 monoclonal antibody (10 μg/mouse) was administered subcutaneously to the burn mice 2 hours before infection and 12 and 24 hours after infection.

HIV [3] = settings: reported in recent years; cited from earlier work
HIV [4] = settings: 150 to 225 mg (6 to 9 tablets) per day, asymptomatic carriers (AC); cited from earlier work
MCP-1 [5] = assay: MCP-1 production by peripheral blood mononuclear cells from AIDS patients (ELISA); format: cell-based, human; settings: 0.1 to 100 μg/ml, 24 hours, FIG. 3
Method: Peripheral blood was collected from AIDS patients and the fraction containing peripheral blood mononuclear cells was isolated using Ficoll-Hypaque. Mononuclear cells were inoculated into each well of a 96-well flat-bottom microtiter plate at a concentration of 1×10^6 cells/ml. The medium was the same as that used in Example 1. The cells were cultured using an incubator maintained at a temperature of 37° C. and CO2 concentration of 5%.
Glycyrrhizin solution was added to each well except the control well at a final concentration of 0.1 to 100 μg/ml followed by culturing for 24 hours.
Following addition of glycyrrhizin, the culture supernatant was recovered and the amount of MCP-1 in the supernatant was quantified by ELISA. A commercially available kit (trade name: Human MCP-1 BD OptEIA ELISA Kit) was used for ELISA.

Row | Molecule | production of MCP-1 induced by IL-10 (MCP-1 [1]) | production of MCP-1 by mononuclear cells from burn patients (MCP-1 [2]) | infection sensitivity to HSV-1 infection (HSV-1; burn mice (third degree burns, 15% of body surface), HSV-1 intraperitoneal, FIG. 4) | intracellular growth of HIV (HIV [3]) | survival without the onset of AIDS (HIV [4]) [years] | production of MCP-1 by mononuclear cells from AIDS patients (MCP-1 [5]) | infection sensitivity to HSV-1 infection (HSV-1; normal mice dosed MCP-1 50 ng/mouse subcutaneously 2 hours before and 12 and 24 hours after infection)
1 | CC1(C)[C@@H](O[C@H]2O[C@H](C(=O)O)[C@@H](O)[C@H](O)[C@H]2O[C@@H]2O[C@H](C(=O)O)[C@@H](O)[C@H](O)[C@H]2O)CC[C@]2(C)[C@H]3C(=O)C=C4[C@@H]5C[C@@](C)(C(=O)O)CC[C@]5(C)CC[C@@]4(C)[C@]3(C)CC[C@@H]12.N [glycyrrhizin, monoammonium glycyrrhizinate] | inhibiting the production of MCP-1 induced by IL-10 | effectively inhibited the production of MCP-1 | recover to the same level as normal mice | inhibits the intracellular growth of HIV | ≥ 10 | production of MCP-1 was found to be inhibited | 
2 | MCP-1: monocyte chemoattractant protein-1, a CC chemokine composed of 76 amino acids |  |  |  |  |  |  | 100 times higher as compared with
